Results taken from patent US9216222B2 (priority 2013, dated 2015).

Assays:
methemoglobin (metHb) [1] = tested on: methemoglobin (metHb); parameters: species or system rats; details: rat, in vivo
methemoglobin (metHb) [2] = details: in vivo; cited from earlier work

SMILES	metHb levels achieved (can reach) (methemoglobin (metHb) [1]) [%]	maximum metHb levels (methemoglobin (metHb) [2])
CC(C)CCON=O [Isoamyl Nitrite, 3-methylbutyl nitrite]	≥ 20.0	–
CCCCCO[N+](=O)[O-] [amyl nitrate]	–	3.45-7.0%
